{"source": "paper PMC6540907", "about": "“The nuclear export inhibitor aminoratjadone is a potent effector in extracellular-targeted drug conjugates” (Chemical Science, 2019)", "key": {"[1]": {"design": "method as in PMID 8761384", "settings": "standalone drug; cited from earlier work"}, "nuclear export": {"system": "nuclear export", "design": "method as in PMID 20055390, PMID 26833854", "settings": "cited from earlier work"}, "CRM1 [2]": {"biological_target": "T1, CRM1 (Homo sapiens, UniProt O14980)", "T1 sequence (O14980 whole entry, the tested form may be a part)": "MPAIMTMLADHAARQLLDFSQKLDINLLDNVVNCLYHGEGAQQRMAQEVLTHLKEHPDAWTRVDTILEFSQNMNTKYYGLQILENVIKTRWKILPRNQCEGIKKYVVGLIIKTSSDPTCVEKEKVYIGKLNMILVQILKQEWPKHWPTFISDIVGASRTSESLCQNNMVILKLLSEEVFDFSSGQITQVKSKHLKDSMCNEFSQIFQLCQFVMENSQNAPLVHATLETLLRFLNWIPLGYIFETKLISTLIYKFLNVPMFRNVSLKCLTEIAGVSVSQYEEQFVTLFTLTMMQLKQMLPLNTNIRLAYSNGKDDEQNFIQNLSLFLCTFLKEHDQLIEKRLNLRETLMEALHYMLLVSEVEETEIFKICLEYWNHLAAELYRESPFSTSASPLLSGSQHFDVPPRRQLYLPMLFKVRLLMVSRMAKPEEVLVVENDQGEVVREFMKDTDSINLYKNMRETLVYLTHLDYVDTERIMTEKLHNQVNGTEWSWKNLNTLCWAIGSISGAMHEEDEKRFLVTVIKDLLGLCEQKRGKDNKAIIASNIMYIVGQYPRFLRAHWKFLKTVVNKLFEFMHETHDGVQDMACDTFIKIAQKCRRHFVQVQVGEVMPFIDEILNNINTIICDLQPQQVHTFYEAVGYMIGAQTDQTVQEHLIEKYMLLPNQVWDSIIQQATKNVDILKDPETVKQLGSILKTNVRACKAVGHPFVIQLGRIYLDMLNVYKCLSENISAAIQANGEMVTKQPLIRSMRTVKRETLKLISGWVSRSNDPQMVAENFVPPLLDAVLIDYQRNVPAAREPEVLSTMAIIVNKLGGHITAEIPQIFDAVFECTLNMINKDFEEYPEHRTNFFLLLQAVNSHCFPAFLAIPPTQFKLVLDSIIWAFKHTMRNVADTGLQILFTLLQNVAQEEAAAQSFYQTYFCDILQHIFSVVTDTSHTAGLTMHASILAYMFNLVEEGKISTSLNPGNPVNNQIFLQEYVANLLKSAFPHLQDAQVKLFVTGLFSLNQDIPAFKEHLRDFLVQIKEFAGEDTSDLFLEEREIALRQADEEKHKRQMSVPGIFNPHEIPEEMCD", "assay": "Nuclear export inhibition, fluorescent translocation biosensor in recombinant HeLa cells", "type": "cell-based", "design": "This cellular assay uses HeLa cells that express a recombinant fusion protein; endogenous in cells; host or cells: HeLa cells stably expressing the NLS-GST-GFP-RevNES translocation biosensor (HeLaRevBio)", "settings": "nuclear export inhibition IC50, HeLa cells expressing translocation biosensor, 1 h incubation"}, "CRM1 [3]": {"biological_target": "T1, CRM1", "assay": "Streptavidin pull-down from HeLa cell lysate with LC-MS/MS identification", "type": "binding", "design": "endogenous in cells; host or cells: HeLa cells (treated live with biotin conjugate 36, then lysed)", "settings": "HeLa cells, 100 ng mL–1, 5 h; control additionally incubated with an excess of 1", "description": "To verify that this activity was indeed CRM1-mediated, HeLa cells were incubated with 36 at a concentration of 100 ng mL^–1 for 5 h and lysed.\nThe cell lysate was incubated with streptavidin-coupled sepharose beads, and bound proteins were eluted, digested and identified by LC-MS/MS.\nStreptavidin-Pull-down with Ratjadone-biotin and identification of exportin by LC-MSMS A chemical pull down was performed to verify binding of ratjadone to Crm1. HeLa cells were treated with ratjadone-biotin, ratjadone or both at 0.1μg/ml final concentration for 5h. Cells were detached by scraping, washed twice in PBS and lysed in MPER-buffer (Thermo Fisher, Waltham, USA) supplemented with complete protease inhibitor (Roche, Mannheim, Germany). After 5min incubation on ice the lysate was centrifuged (20min, 13000rpm, 4°C) and the supernatant was incubated with streptavidin sepharose high performance (GE healthcare, Freiburg, Germany) overnight at 4°C. The next day beads were washed twice with PBS and resuspended in elution buffer (Roth) and heated to 95°C for 10min. 5% were tested on WesternBlot with a biotin-specific antibody.\nFigure S12: Gel of α-Streptavidin pulldown experiment: Identification of protein band in the eluat of Biotin-PEG3-16S- […]"}, "KB-3.1 cells": {"system": "KB-3.1 cells", "assay": "Flow cytometry, fluorescence intensity per cell", "type": "cell-based, human", "settings": "KB-3.1, 1 µM, 30 min, 37 °C"}, "folate receptor-α, FRα": {"biological_target": "folate receptor-α, FRα", "design": "method as in ref 31 = [31]; Lu Y. Low P. S. Adv. Drug Delivery Rev. 2012 64 342 352", "settings": "read-out: folate affinity of the receptors; cited from earlier work"}}, "data": [{"smiles": "CCC(=C/[C@H](C)C/C=C/C(C)=C/[C@@H](C)C(=O)[C@@H](C)[C@H](O)[C@@H](C)C/C(C)=C/C(=O)O)/C=C/[C@@H]1OC(=O)C=C[C@@H]1C", "note": "[Compound 5, leptomycin B]", "values": [{"measurement": "outcome of early clinical trials", "setting": "[1]", "result": "failed due to its high systemic toxicity"}]}, {"smiles": "CCC(=C/C(C)C)/C=C/[C@H]1CC=CC(=O)O1", "note": "[Compound 8]", "values": [{"measurement": "concentration at which nuclear export is inhibited", "setting": "nuclear export", "result": 25, "unit": "nM"}]}, {"smiles": "CC=CC1OC(C(C=CC=C(C)CC(C)C=C(C)C=CC2CC=CC(=O)O2)NC(=O)OCCc2cn(CCOCCOCCOCCNC(=O)CCCCC3SCC4NC(=O)NC43)nn2)CC(O)C1C", "note": "(stereo not drawn) [Compound 36, biotin-PEG3-16S-aminoratjadone]", "values": [{"measurement": "IC50", "setting": "CRM1 [2]", "result": 0.152, "unit": "µM"}, {"measurement": "CRM1 identified in streptavidin pull-down", "setting": "CRM1 [3]", "result": "clearly identified in this manner and strongly enriched"}]}, {"smiles": "O=C1OC2(c3ccc(O)cc3Oc3cc(O)ccc32)c2ccccc21", "note": "[fluorescein]", "values": [{"measurement": "fluorescence intensity per cell", "setting": "KB-3.1 cells", "result": "did not label the cells"}]}, {"smiles": "Nc1nc(=O)c2nc(CNc3ccc(C(=O)N[C@@H](CCC(=O)O)C(=O)O)cc3)cnc2[nH]1", "note": "[folate, Folic acid]", "values": [{"measurement": "Kd", "setting": "folate receptor-α, FRα", "result": "[…]"}]}]}
